# Assays:
# Assay type in all cases: cell-based
# rat neuroid cells B50 [1] = assay: Cytoprotection against singlet oxygen (Rose Bengal + G-LED), Alamar Blue fluorescence; settings: 0, 12.5, 25, 50, or 100 μmol/1, RB 200 nmol/1 + G-LED 5 minutes, negative control being 100, FIG. 3
# Protocol: Edaravone, ED2AP and BisEp-C3 were examined for whether they had the function of alleviating neuronopathy. Specifically, singlet oxygen was generated by combining Rose Bengal (RB), which is a sensitizer, with green light (G-LED), and the function of alleviating the cytotoxicity of the generated singlet oxygen was examined with the cellular activity being an indicator.
# First, rat neuroid cells B50 were cultured in 12-well dishes at 2×10^5 cells/well (medium: RPMI-1640 medium containing 5% FCS) overnight. After the culturing, the medium of each well was replaced with HBSS (1,000 μl/well; phenol red-free Ca+, Mg+) containing 200 nmol/1 RB and edaravone, ED2AP, or BisEp-C3 having a predetermined concentration (0, 12.5, 25, 50, or 100 μmol/1). The dish was then irradiated with G-LED for 5 minutes to generate singlet oxygen. Thereafter, the medium of each well was replaced with 1,000 μl of HBSS, and Alamar Blue was added. The dish was then allowed to react for about 2 hours in an incubator at 37° C. and 5%CO2. After the reaction, fluorescence intensity (excitation wavelength: λ- 560 nm, fluorescence wavelength: λ-595 nm) was measured with a plate reader (infinite200, Tecan Trading AG). In this experimental system, the higher the cellular activity, the more Alamar Blue is taken up and the higher the fluorescence intensity. As a control, fluorescence intensity was measured in the same manner except that sodium azide (Azide, NaN3) was added instead of the compounds so as to achieve a concentration of 4 mmol/1. As a negative control (NC), fluorescence intensity was measured in the same manner except that RB was not added. The relative value of the fluorescence intensity in the sample to which each compound was added was calculated with the fluorescence intensity of the negative control being 100.
# rat neuroid cells B50 [2] = assay: Toxicity evaluation on byproducts after reaction with singlet oxygen; settings: byproducts after reaction with singlet oxygen, 50, 100, or 200 μmol/1, FIG. 6
# Protocol: In a cell-free system, the RB was added to media (5% FCS-containing RPMI-1640 media) containing edaravone, ED2AP, and BisEp-C3 having a predetermined concentration (50, 100, or 200 μmol/1) and then irradiated with LED (G-LED) at 525 nm to generate singlet oxygen, whereby reacting each compound with singlet oxygen. The cell viability was measured in the same manner as in Example 7(1), except that the culture solution after the reaction was used as a medium of the neuroid cell B50. As a negative control (NC), the cell viability was measured in the same manner except that each compound and […] were not added in the cell-free system. Further, as a control (RB), the cell viability was measured in the same manner except that each compound was not added and only […] was added in the cell-free system.
# rat neuroid cells B50 [3] = assay: Toxicity evaluation, cell viability by Alamar Blue; settings: 12.5, 25, 50, 100, or 200 μmol/1, 24 hours, FIG. 5
# Protocol: Rat neuroid cells B50 were seeded in 12-well plates and then cultured. Edaravone (RC), ED2AP, or BisEp-C3 was added to each well so as to achieve a predetermined concentration (12.5, 25, 50, 100, or 200 μmol/1), and then incubated for 24 hours at 37° C. and 5% CO2. Cell viability in each well after the culture was measured using Alamar Blue.
structure (smiles),measurement,setting,value
"CC1=NN(c2ccccc2)C(=O)C1 [Edaravone, 3-methyl-1-phenyl-5-pyrazolone, reference compound]",relative value of the fluorescence intensity,rat neuroid cells B50 [1],not recovered
same,cell viability (cytotoxicity of byproducts),rat neuroid cells B50 [2],not cytotoxic at any concentration
same,cell viability (cytotoxicity),rat neuroid cells B50 [3],not cytotoxic at any concentration

# Reference: patent publication US12569470B2, “Vasodilator and use thereof” (Bioradical Research Institute Corp., priority 2019, dated 2026)
